Results on 6 compounds are retold here after patent US6620853B1, “Methods and compositions for prevention and treatment of restenosis with non-steroidal anti-inflammatory drugs” (Mount Sinai School of Medicine, priority 1998, dated 2003).

In test [1] the test system is cyclooxygenase. As to conditions: Adv. Drug Res. 1977, 12:90-245; cited from earlier work.
Test [2] relates to ApoE-deficient mice. The experiment in a line: Atherosclerotic lesions and plasma cholesterol in ApoE-deficient mice on western diet. In kind it is in vivo, mouse. The note with it: ApoE-deficient mice maintained on a western diet. The text has this: The Apo-E deficient mouse is the first mouse model of atherosclerosis with pathology similar to that of human atherosclerosis (Cell 1992, 71:343-353). Serum cholesterol levels in the mice maintained on a chow diet are five times higher than those of control littermates. Apo-E, which is made primarily in the liver, is a surface constituent of lipoprotein particles and a ligand for lipoprotein recognition and clearance by lipoprotein receptors (Science 1996, 272:685-688). ApoE-deficient mice have delayed clearance of lipoproteins, and on a low-cholesterol, low-fat diet, their cholesterol levels reach 400 to 600 mg/dl as a result of accumulation of chylomicron and very low-density lipoprotein (VLDL) remnants enriched in esterified and free cholesterol (Circulation 1993, 88:A9). These mice develop not only fatty streaks but also widespread fibrous plaque lesions at vascular sites typically affected in human atherosclerosis (Arterioscier. Thromb. 1994, 14;1873). Lesions form at the base of the aorta and the lesser curvature of the thoracic aorta, at the branch points of the carotid, intercostal, mesenteric, renal and iliac arteries, and in the proximal coronary, carotid, femoral, subclavian, and brachiocephalic arteries. Lesions begin at 5 to 6 weeks of age with monocyte attachment to the endothelium in lesion-prone areas and transendothelial migration. Fatty streak lesions begin to appear at 10 weeks, and intermediate lesions containing foam cells and spindle-shaped smooth muscle cells appear at 15 weeks. Fibrous plaques appear after 20 weeks and consist of a necrotic core covered by a fibrous cap of smooth muscle cells surrounded by elastic fibers and collagen. In older mice, fibrous plaques progress. In some advanced lesions there is partial destruction of underlying medial cells with occasional aneurysm formation, and in others calcification occurs in the fibrous tissue. Extensive fibro-proliferation can narrow the lumen, even to the point of occlusion of vessels.
Atherosclerosis can be exacerbated by a high-cholesterol or high-fat diet. This effect is mimicked in the ApoE-deficient mice when these mice are fed a western-type diet as described below in Section 6.
The Apolipoprotein E knock-out mouse model is a valuable animal model to test the effect of NSAIDs on apoptosis, proliferation, quiescence, migration and differentiation of cells that contribute to atherosclerosis. ApoE is an apoprotein on the surface of atherogenic lipoproteins that serves as a ligand for certain receptors in key tissues. ApoE-induced signaling via these receptors, particularly by the hepatic LDL receptor, induces the removal of ApoE-containing lipoprotein particles from the plasma. […]

In test [3] the test system is HT-29 human colon adenocarcinoma cells. The note with it: cited from earlier work.
In test [4] the test system is ApoE-knockout mice. It counts as in vivo, mouse. The note with it: Western Diet with Sulindac (300 mg/kg) for 17 weeks, examined four weeks after injury; vs control group. An excerpt:
We have developed a new mouse model of studying restenosis, in which the injury of the femoral artery is accomplished by the manipulation of wire stent which is introduced into the femoral artery first and then removed.
Briefly, the mouse is anesthetized with pentobarbital and the femoral artery is exposed by cutting the skin in the femoral region carefully. An angioplastz guide wire obtained from Advanced Cardiovascular Systems, Tameaila, Calif. of approximately 100 mm in length and 0.25 mm in diameter is then carefully inserted into the femoral artery, gently manipulated to simulate the arterial revascularization procedures used in humans, and removed. The bleeding is stopped by ligation. The skin fold is restored by sutures.
By one month after injury maximum restenosis is measured is achieved. The degree of restenosis is measured by two indices, the intima/media (I/M) ratio and the percentage of lumenal narrowing. […]
Thirty six week old ApoE-knockout mice were used and given the following dietary regimen and treatment: Group 1-western type diet (containing 42% by calories % fat and 0.15% (w/w) cholesterol); Group 2-western type diet plus aspirin at a concentration of 300 mg/kg diet/day and Group 3-western type diet plus Sulindac at a concentration of 300 mg/kg diet/day. […] The body weight was monitored on a weekly basis. […]

For test [5], the system named is HCT-15 cultured colon cancer cell line. The note with it: Biochem. Pharmacol. 1996, 52:237-245; cited from earlier work.

For the compound `CSc1ccc(/C=C2/C(C)=C(CC(=O)O)c3cc(F)ccc32)cc1` [sulfide, Sulindac sulfide], the inhibition of cyclooxygenase result in test [1] is listed as “potent inhibitory agent of cyclooxygenase”.

For `CC1=C(CC(=O)O)c2cc(F)ccc2/C1=C\c1ccc([S+](C)[O-])cc1` (stereo not drawn) [Sulindac], in test [2], the “development of atherosclerotic lesion / atherosclerotic index” value was “significantly inhibited” and the “level of cholesterol in the plasma” value is recorded as “reduced the level of cholesterol in the plasma”. Besides, in test [3], the “morphology of HT-29 cells” value was “altered morphology” and the “proliferation of HT-29 cells” value is recorded as “reduced proliferation”. For the same compound, in test [4], the “arterial narrowing after mechanical arterial injury” value is listed as “narrowing of the artery was not as marked” and the “smooth muscle cell proliferation after mechanical arterial injury” value is recorded as “much less proliferation of smooth muscle cells”. Moreover, the antiproliferative effect result in test [5] is on record as “antiproliferative effect independent of prostaglandin synthesis”.

Turning to `CC1=C(CC(=O)O)c2cc(F)ccc2/C1=C\c1ccc(S(C)(=O)=O)cc1` [sulfone, Sulindac sulfone], the inhibition of cyclooxygenase result in test [1] was “does not inhibit cyclooxygenase”.

Turning to `CC(=O)Oc1ccccc1C(=O)O` [aspirin], in test [2], the “development of atherosclerotic lesion / atherosclerotic index” value was “inhibited the atherosclerotic index but to a lesser extent than observed in the group treated with Sulindac” and the “level of cholesterol in the plasma” value is listed as “reduced the level of cholesterol in the plasma”. Besides, in test [3], the “morphology of HT-29 cells” value is given as “altered morphology” and the “proliferation of HT-29 cells” value is given as “reduced proliferation”.

With `CN1C(C(=O)Nc2ccccn2)=C(O)c2ccccc2S1(=O)=O` [piroxicam], in test [3], the “morphology of HT-29 cells” value is reported as “altered morphology” and the “proliferation of HT-29 cells” value is “reduced proliferation”. Also, the antiproliferative effect entry in test [5] was “antiproliferative effect independent of prostaglandin synthesis”.

`COc1ccc2c(c1)c(CC(=O)O)c(C)n2C(=O)c1ccc(Cl)cc1` [indomethacin]: in test [3], the “morphology of HT-29 cells” value is “altered morphology” and the “proliferation of HT-29 cells” value is listed as “reduced proliferation”.
